{
  "source": "patent US20200023073A1",
  "about": "“A NEW DRUG DELIVERY SYSTEM FOR TREATMENT OF DISEASE” (SINTEF TTO AS, priority 2016, published 2020)",
  "test_system": "MDA-MB-231 cells",
  "experiment": "AlamarBlue Cell Viability Assay",
  "assay_type": "cell-based, human",
  "details": "MDA-MB-231, various concentrations, 24, 48 and 72 hours",
  "method": "The cytotoxic effect of empty PBCA NPs, PBCA NPs with encapsulated cabazitaxel as well as free cabazitaxel was studied on breast cancer cells (MDA-MB-231 cells=human epithelial, mammary adenocarcinoma cell line). AlamarBlueR Cell Viability Assay was used to evaluate cell viability. Cells were seeded in density 5000 cells/200 μl medium for each well. After 3 days old medium was removed from wells and both encapsulated cabazitaxel and free cabazitaxel was diluted in medium and added to the well. Concentration of NPs was ranged from 0.1 ng/ml to 1000 ng/ml. Concentrations of free cabazitaxel was chosen to match the concentrations of cabazitaxel in NPs. Control wells contained cells in growth medium.\nThe well plates were incubated for 24, 48 and 72 hours at 37° C. and 5% CO2, before the medium was removed from the well followed by 3 times washing with fresh growth medium. Growth medium containing 10% of alamar Blue assay was added into each well and the plates incubated for another 3 hours at 37° C. and 5% CO2, and the fluorescence intensity measured by microplate reader (excitation/emission at 550/590 nm).",
  "data": [
    {"smiles": "CO[C@H]1C(=O)[C@]2(C)[C@@H](OC)C[C@H]3OC[C@@]3(OC(C)=O)[C@H]2[C@H](OC(=O)c2ccccc2)[C@]2(O)C[C@H](OC(=O)[C@H](O)[C@@H](NC(=O)OC(C)(C)C)c3ccccc3)C(C)=C1C2(C)C", "note": "[free cabazitaxel, cabazitaxel]", "values": [
      {"measurement": "response of cell viability to treatment", "result": "dose-responsive manner"}
    ]}
  ]
}
